Measured values: patent publication US20240217973A1, “IMIDAZOPYRIDINE COMPOUNDS AND USE THEREOF” (MEDSHINE DISCOVERY INC., priority 2021, published 2024)
pIC50: −log10 of the molar value.

Key:
[1] = Hepatocyte metabolic stability experiment (HMS), C; format: in vitro ADME; conditions: cynomolgus monkey, C hepatocytes, read-out: HMS CLint(liver)
Description: Experimental operations: 198 μL of hepatocyte suspension (0.51×10^6 cells/mL) was added to the preheated incubation plate, and 198 μL of culture medium without hepatocytes was added to T0-MC and T120-MC incubation plates for the culture medium control group, and all incubation plates were pre-incubated for 10 minutes in a 37° C. incubator. Then 2 μL of the working solution of the test and control compounds were added and mixed well, and the incubation plate was immediately put into the plate shaker in the incubator, the rotation speed was adjusted to about 650 rpm, and the timer and the reaction were started. 2 duplicate samples for each compound were prepared at each time point. Incubation conditions: 37° C., saturated humidity, and containing 5% CO2. In the test system, the final concentration of the test compound was 1 μM, the final concentration of the control compound was 3 μM, the final concentration of hepatocytes was 0.5×10^6 cells/mL, and the final concentration of the total organic solvent was 0.96%, of which the final concentration of DMSO was 0.1%. […] All samples were mixed and analyzed by LC-MS/MS method. […]

HPBMC cells = assay: HPBMC experiment: CD69 on anti-human IgM stimulated B cells, flow cytometry; format: cell-based; conditions: B-cell, B cells isolated from PBMC, 48 hours
Description: • 1) Medium: RPMI Medium 1640+1% P/S+10% FBS • 2) MACS buffer: 2% FBS+1 mM EDTA in DPBS • 3) Staining buffer: DPBS+2% FBS • 1.2 Dilution of Compounds and Anti-Human IgM
The initial concentration of the compound to be tested was […], 3-fold dilution, 9 points, and it was added to a 96 well plate after dilution, 50 μL/ well.
The anti-human IgM was diluted according to Table 2 below, and added to the 96 well plate after dilution, 50 μL/well.
• 1) PBMC was removed from a liquid nitrogen tank, then resuscitated and thawed in a 37° C. water bath; • 2) Using a B cell olation kit, B cells were isolated from PBMC according to the instructions, and their viability and number were calculated using a cell counter.
Table 10 Number and viability of PBMC and B cells • 3) The cells were resuspended with 1640 culture medium to a final concentration of 1 M/mL. • 4) The B cells were spread at 0.1 M/ well (100 μL) into a 96-well flat-bottom plate already containing the compound and anti-IgM. • 5) The plate was incubated in a 37° C. CO2 incubator for 48 hours; […]

BTK kinase = BTK kinase (Homo sapiens (Human), UniProt Q06187); assay: BTK kinase experiment (ADP-Glo); format: biochemical; conditions: 2 μM ATP, PolyE4Y1 substrate, 30 minutes pre-incubation
Chain of BTK kinase (Q06187 whole entry): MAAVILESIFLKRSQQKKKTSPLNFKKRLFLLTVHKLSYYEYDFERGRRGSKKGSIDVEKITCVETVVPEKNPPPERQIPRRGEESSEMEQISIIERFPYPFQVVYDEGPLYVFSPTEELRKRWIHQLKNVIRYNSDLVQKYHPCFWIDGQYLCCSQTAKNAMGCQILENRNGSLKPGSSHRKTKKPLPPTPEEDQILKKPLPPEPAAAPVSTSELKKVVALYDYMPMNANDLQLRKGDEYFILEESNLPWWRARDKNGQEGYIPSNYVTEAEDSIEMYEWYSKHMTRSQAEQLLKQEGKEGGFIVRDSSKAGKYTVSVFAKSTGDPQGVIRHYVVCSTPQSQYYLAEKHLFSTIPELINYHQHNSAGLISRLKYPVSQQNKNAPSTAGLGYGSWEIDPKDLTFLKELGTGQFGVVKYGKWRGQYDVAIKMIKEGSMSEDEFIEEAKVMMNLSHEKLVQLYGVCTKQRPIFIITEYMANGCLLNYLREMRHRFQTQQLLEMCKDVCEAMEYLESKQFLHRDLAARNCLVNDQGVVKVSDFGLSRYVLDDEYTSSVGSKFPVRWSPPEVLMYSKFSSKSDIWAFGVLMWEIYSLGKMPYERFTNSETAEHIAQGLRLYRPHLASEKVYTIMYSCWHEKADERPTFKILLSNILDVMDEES
Description: BTK kinase, PolyE4Y1 substrate and Kinase assay buffer III were purchased from Signalchem; ADP-Glo Kinase Assay was purchased from Promega; Nivo multi-label analyzer (PerkinElmer).
1× buffer preparation (which was prepared and used immediately): Kinase assay buffer III was diluted with ddH2O to 1× assay buffer for later use.
The compound to be tested was diluted with 100% DMSO to 10 μM as the first concentration, and followed by a 5-fold dilution to the 8th concentration using a multi-channel pipette, i.e., it was diluted from 10 μM to 0.128 nM.
Each gradient of the compound to be tested was diluted into a working solution with 5% DMSO using 1× buffer, 1 μL/well was added to the corresponding well, and a double-replicate well experiment was set up. 2 μL of BTK enzyme (4 ng) was add to each well and incubating at 25° C. for 30 minutes. After the incubation was completed, 2 μL of a mixture of substrate and ATP (2 μM ATP, 0.2 μg/μL PolyE4Y1) was added to each well and incubating at 25° C. for 120 minutes. At this point, the final concentration gradient of the compound was diluted from 100 nM to 0.00128 nM. After the reaction was completed, 5 μL of ADP-Glo reagent was added to each well, and the reaction continued at 25° C. for 40 minutes. After the reaction was completed, 10 μL of kinase detection reagent was added to each well. After reacting at 25° C. for 30 minutes, PerkinElmer Nivo multi-label analyzer was used to read the chemiluminescence, and the integration time was 0.5 seconds.
Raw data was converted into inhibition rate using the equation: (Sample−Min)/(Max−Min)*100%. The IC50 value could then be derived by performing a curve fit using four-parameter (which was obtained using the “log(inhibitor) vs. response-Variable slope” mode in GraphPad Prism).

- CLint scaled at 1 μM [1]: 203 mL/min/kg
- pIC50 (HPBMC cells): 8.44
- pIC50 (BTK kinase): 8.78
SMILES: Nc1nccc2c1n(-c1ccc(Oc3ccccc3)cc1)c(=O)n2[C@@H]1CCCN(C(=O)/C=C/CF)C1 [Compound 002]
